Test results reported in patent publication US20210188813A1, “EZH2 INHIBITOR AND PHARMACEUTICALLY ACCEPTABLE SALTS AND POLYMORPHIC SUBSTANCES THEREOF, AND APPLICATION OF EZH2 INHIBITOR” (SHANGHAI HAIYAN PHARMACEUTICAL TECHNOLOGY CO., LTD., priority 2018, published 2021).

Tests used:
[1] = Solid state stability experiment; assay type: physicochemical
From the text: Detected changes in crystal form and purity at 4 and 7 days.

[2] = Dynamic solubility experiment; assay type: physicochemical; settings: for Solubility: room temperature, 24 h
From the text: The free base samples and the two crystal forms were plotted separately in the experiment.

[3] = target: T1, PRC2 (EZH2-Y641F) (Homo sapiens, UniProt Q15910, Y641F); test: In vitro methyltransferase assay; assay type: biochemical
T1 construct: purchased Active motif
T1 sequence (Q15910 whole entry Y641F): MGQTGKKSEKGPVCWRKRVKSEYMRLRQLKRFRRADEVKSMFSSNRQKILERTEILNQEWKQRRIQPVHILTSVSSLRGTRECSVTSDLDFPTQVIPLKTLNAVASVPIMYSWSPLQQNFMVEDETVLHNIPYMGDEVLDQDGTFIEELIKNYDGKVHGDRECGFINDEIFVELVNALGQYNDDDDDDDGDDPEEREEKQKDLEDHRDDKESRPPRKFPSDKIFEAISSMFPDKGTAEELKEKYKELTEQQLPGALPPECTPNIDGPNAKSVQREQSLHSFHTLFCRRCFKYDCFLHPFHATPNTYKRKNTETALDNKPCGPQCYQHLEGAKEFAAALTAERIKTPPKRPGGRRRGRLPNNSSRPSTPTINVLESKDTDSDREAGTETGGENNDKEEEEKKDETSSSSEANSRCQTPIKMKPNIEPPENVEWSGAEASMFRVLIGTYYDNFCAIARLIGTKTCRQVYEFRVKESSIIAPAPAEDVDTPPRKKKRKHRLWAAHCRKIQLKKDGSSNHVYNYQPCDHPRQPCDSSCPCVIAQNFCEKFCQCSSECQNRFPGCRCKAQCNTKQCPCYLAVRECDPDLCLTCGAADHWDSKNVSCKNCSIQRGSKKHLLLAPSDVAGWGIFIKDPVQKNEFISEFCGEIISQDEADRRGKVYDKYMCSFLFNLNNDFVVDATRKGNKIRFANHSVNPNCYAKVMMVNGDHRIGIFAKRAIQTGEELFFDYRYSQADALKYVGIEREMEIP
T1 sequence (O75530 whole entry partner): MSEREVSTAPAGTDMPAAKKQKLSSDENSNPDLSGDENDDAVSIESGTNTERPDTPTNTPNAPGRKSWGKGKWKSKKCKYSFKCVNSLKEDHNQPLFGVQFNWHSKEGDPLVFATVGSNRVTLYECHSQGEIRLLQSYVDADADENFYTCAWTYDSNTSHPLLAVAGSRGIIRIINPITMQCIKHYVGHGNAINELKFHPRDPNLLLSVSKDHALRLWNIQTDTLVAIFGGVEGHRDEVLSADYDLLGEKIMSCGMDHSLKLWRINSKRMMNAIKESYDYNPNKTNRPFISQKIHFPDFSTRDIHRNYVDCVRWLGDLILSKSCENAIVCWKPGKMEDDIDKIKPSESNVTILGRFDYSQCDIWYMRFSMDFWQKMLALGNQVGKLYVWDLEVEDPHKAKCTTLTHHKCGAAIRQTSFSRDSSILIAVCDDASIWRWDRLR
T1 sequence (Q15022 whole entry partner): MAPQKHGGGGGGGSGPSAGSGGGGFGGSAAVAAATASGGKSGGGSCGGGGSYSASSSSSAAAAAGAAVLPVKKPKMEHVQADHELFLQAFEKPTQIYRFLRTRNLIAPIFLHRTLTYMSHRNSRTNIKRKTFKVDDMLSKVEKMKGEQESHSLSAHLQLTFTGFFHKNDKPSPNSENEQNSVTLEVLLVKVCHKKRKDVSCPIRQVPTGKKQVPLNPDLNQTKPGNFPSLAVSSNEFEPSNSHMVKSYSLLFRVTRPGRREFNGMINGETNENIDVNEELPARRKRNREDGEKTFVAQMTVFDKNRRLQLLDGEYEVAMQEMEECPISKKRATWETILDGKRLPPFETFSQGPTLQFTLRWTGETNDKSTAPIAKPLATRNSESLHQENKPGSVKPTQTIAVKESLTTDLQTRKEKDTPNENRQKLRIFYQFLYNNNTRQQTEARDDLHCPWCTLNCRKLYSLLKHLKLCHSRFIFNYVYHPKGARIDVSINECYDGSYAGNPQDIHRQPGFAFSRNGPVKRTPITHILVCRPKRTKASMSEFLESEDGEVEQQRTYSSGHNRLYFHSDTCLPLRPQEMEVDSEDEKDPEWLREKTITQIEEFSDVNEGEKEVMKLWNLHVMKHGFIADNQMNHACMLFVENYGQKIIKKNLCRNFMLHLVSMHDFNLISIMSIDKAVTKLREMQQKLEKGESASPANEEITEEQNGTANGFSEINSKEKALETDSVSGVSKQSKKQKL
T1 sequence (Q09028 whole entry partner): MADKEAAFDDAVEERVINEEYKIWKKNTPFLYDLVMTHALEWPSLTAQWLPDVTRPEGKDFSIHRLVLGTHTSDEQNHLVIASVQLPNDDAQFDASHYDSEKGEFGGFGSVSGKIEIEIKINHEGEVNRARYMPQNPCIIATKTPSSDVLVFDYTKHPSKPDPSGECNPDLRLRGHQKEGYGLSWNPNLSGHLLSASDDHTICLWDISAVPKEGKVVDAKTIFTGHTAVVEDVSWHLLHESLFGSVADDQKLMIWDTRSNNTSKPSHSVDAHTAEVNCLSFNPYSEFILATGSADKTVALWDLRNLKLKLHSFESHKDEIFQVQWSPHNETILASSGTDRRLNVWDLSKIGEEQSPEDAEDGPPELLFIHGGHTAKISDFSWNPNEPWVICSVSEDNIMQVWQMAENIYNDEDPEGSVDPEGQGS
T1 sequence (Q6ZN18 whole entry partner): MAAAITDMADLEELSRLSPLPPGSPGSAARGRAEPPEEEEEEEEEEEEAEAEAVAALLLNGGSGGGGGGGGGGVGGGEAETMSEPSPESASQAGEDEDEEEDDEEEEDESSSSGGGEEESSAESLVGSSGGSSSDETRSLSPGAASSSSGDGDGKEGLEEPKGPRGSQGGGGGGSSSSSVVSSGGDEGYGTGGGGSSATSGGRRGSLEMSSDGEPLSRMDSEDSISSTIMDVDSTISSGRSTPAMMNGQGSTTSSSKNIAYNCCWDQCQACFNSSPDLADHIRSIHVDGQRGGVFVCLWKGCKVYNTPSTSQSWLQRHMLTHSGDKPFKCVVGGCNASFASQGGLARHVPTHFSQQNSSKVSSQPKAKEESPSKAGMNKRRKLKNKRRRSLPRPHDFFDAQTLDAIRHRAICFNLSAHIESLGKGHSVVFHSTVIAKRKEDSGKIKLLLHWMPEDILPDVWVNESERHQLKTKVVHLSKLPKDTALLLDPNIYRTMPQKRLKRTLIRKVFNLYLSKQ
Experimental: Recombinant PRC2 (EZH2-Y641F) was purchased from Active motif, S-adenosyl-methionin chloride (SAM) and Poly-L-lysine (PLL) were purchased from Sigma-Aldrich, H3(1-50)K27me1 peptide was purchased from Cisbio. LANCEUltra (Perkinelmer) system was used for detection. For the enzyme activity test, tested compounds are 1:3 diluted for 8-points, and added into each well, then 100 ng enzyme is added. And then the buffer [20 mM Tris pH8.5, 2 mM MgCl2, 0.01% Tween-20, 1 mM TCEP] containing […]/250 nM H3 (1-50)K27me1 premixtures are added. After 3 hours enzyme reaction at RT, the premixed detection buffer (PLL, Europium antibody and Ulight) is added, and react for 1 h at RT, then read fluorescence on Tecan infinite pro. IC50s are counted by XLfit using a four-parameter model.

[4] = system: Pfeiffer cells; test: Cell proliferation assay, Pfeiffer; assay type: cell-based; settings: Homo sapiens, Pfeiffer, 144 h; 6 days' growth, cell counting kit-8
Experimental: Cell lines Pfeiffer (CRL-2632), suDHL-6 (CRL-2959) and suDHL-10 (CRL-2963) were obtained from ATCC. All cell lines were cultured in RPMI-1640 medium (Gibco) plus 10% FBS (Gibco). Cells are harvested by centrifuge and densities are determined using a CounterStar cell counter. Appropriate number of cells are plated in a96-well culture plate and pre-incubate overnight. Tested compounds are 1:3 diluted for 8-points and added into each well. After 6 days' growth, cell counting kit-8 (Dojindo) is used to detect cell viability and read on Tecan infinite pro. IC50s are counted by XLfit using a four-parameter model.

[5] = 60° C. and 40° C./75% RH, 4 and 7 days

Structure (SMILES): CCc1c(C(=O)NCc2c(C)cc(C)[nH]c2=O)cc2c(cnn2C)c1N(CC)[C@H]1CC[C@H](N2CC(OC)C2)CC1.O=C(O)/C=C\C(=O)O [Crystal form B]
- Content (%) ([1]; 4° C. 0 d): 96.94%
- Properties ([1]; 4° C. 0 d): Off-white
- RRT(%) 0.86 ([1]; 4° C. 0 d): 0.19%
- RRT(%) 0.89 ([1]; 4° C. 0 d): 0.09%
- RRT(%) 0.92 ([1]; 4° C. 0 d): 0.05%
- RRT(%) 0.94 ([1]; 4° C. 0 d): 0.17%
- RRT(%) 1.04 ([1]; 4° C. 0 d): 0.51%
- RRT(%) 1.07 ([1]; 4° C. 0 d): 0.43%
- RRT(%) 1.10 ([1]; 4° C. 0 d): 0.38%
- RRT(%) 1.13 ([1]; 4° C. 0 d): 0.21%
- RRT(%) 1.15 ([1]; 4° C. 0 d): 0.40%
- RRT(%) 1.16 ([1]; 4° C. 0 d): 0.64%
- Total impurities (%) ([1]; 4° C. 0 d): 3.06%
- Content (%) ([1]; 40° C./75% RH 4 d): 96.88%
- Properties ([1]; 40° C./75% RH 4 d): Off-white
- RRT(%) 0.86 ([1]; 40° C./75% RH 4 d): 0.20%
- RRT(%) 0.89 ([1]; 40° C./75% RH 4 d): 0.08%
- RRT(%) 0.92 ([1]; 40° C./75% RH 4 d): 0.05%
- RRT(%) 0.94 ([1]; 40° C./75% RH 4 d): 0.16%
- RRT(%) 1.04 ([1]; 40° C./75% RH 4 d): 0.45%
- RRT(%) 1.07 ([1]; 40° C./75% RH 4 d): 0.40%
- RRT(%) 1.10 ([1]; 40° C./75% RH 4 d): 0.47%
- RRT(%) 1.13 ([1]; 40° C./75% RH 4 d): 0.20%
- RRT(%) 1.15 ([1]; 40° C./75% RH 4 d): 0.41%
- RRT(%) 1.16 ([1]; 40° C./75% RH 4 d): 0.63%
- RRT(%) 1.20 ([1]; 40° C./75% RH 4 d): 0.07%
- Total impurities (%) ([1]; 40° C./75% RH 4 d): 3.12%
- Content (%) ([1]; 40° C./75% RH 7 d): 96.95%
- Properties ([1]; 40° C./75% RH 7 d): Off-white
- RRT(%) 0.86 ([1]; 40° C./75% RH 7 d): 0.25%
- RRT(%) 0.89 ([1]; 40° C./75% RH 7 d): 0.07%
- RRT(%) 0.92 ([1]; 40° C./75% RH 7 d): 0.05%
- RRT(%) 0.94 ([1]; 40° C./75% RH 7 d): 0.16%
- RRT(%) 1.04 ([1]; 40° C./75% RH 7 d): 0.45%
- RRT(%) 1.07 ([1]; 40° C./75% RH 7 d): 0.41%
- RRT(%) 1.10 ([1]; 40° C./75% RH 7 d): 0.44%
- RRT(%) 1.13 ([1]; 40° C./75% RH 7 d): 0.20%
- RRT(%) 1.15 ([1]; 40° C./75% RH 7 d): 0.41%
- RRT(%) 1.16 ([1]; 40° C./75% RH 7 d): 0.63%
- Total impurities (%) ([1]; 40° C./75% RH 7 d): 3.05%
- Content (%) ([1]; 60° C. 4 d): 97.34%
- Properties ([1]; 60° C. 4 d): Off-white
- RRT(%) 0.86 ([1]; 60° C. 4 d): 0.14%
- RRT(%) 0.89 ([1]; 60° C. 4 d): 0.06%
- RRT(%) 0.94 ([1]; 60° C. 4 d): 0.26%
- RRT(%) 1.04 ([1]; 60° C. 4 d): 0.36%
- RRT(%) 1.07 ([1]; 60° C. 4 d): 0.43%
- RRT(%) 1.10 ([1]; 60° C. 4 d): 0.32%
- RRT(%) 1.13 ([1]; 60° C. 4 d): 0.13%
- RRT(%) 1.15 ([1]; 60° C. 4 d): 0.39%
- RRT(%) 1.16 ([1]; 60° C. 4 d): 0.59%
- Total impurities (%) ([1]; 60° C. 4 d): 2.66%
- Content (%) ([1]; 60° C. 7 d): 97.30%
- Properties ([1]; 60° C. 7 d): Off-white
- RRT(%) 0.86 ([1]; 60° C. 7 d): 0.16%
- RRT(%) 0.89 ([1]; 60° C. 7 d): 0.05%
- RRT(%) 0.94 ([1]; 60° C. 7 d): 0.29%
- RRT(%) 1.04 ([1]; 60° C. 7 d): 0.35%
- RRT(%) 1.07 ([1]; 60° C. 7 d): 0.44%
- RRT(%) 1.10 ([1]; 60° C. 7 d): 0.29%
- RRT(%) 1.13 ([1]; 60° C. 7 d): 0.13%
- RRT(%) 1.15 ([1]; 60° C. 7 d): 0.40%
- RRT(%) 1.16 ([1]; 60° C. 7 d): 0.60%
- Total impurities (%) ([1]; 60° C. 7 d): 2.70%
- change in crystal form on storage [1, 5]: the crystal form has not changed
- solid state stability [1, 5]: good stability
- Phenomenon ([2]; 0.1M HCl): clear
- Solubility ([2]; 0.1M HCl): ≥30400 µg/mL
- Final pH ([2]; H2O): 5.06
- Phenomenon ([2]; H2O): turbid
- Solubility ([2]; H2O): 3130 µg/mL
- Final pH ([2]; pH 4.5 buffer): 4.91
- Phenomenon ([2]; pH 4.5 buffer): clear
- Solubility ([2]; pH 4.5 buffer): ≥3070 µg/mL
- Final pH ([2]; pH 6.8 buffer): 6.53
- Phenomenon ([2]; pH 6.8 buffer): clear
- Solubility ([2]; pH 6.8 buffer): ≥3720 µg/mL

Structure (SMILES): CCN(c1cc(C(=O)NCc2c(C)cc(C)[nH]c2=O)c(C)c2c1cnn2C)C1CCOCC1 [D1, N-((4,6-dimethyl-2-oxo-1,2-dihydropyridin-3-yl)methyl)-4-(ethyl (tetrahydro-2H-pyran-4-yl)amino)-1,7-dimethyl-1H-indazole-6-carboxamide]
- IC50 [3]: > 10 µM
- IC50 [4]: > 10 µM
